The record followed here is ChEMBL document CHEMBL1127245, “The effect of heteroatom substitution on a series of phosphonate inhibitors of neutral endopeptidase 24.11” (Bioorg Med Chem Lett, 1994).

The term IC50 denotes the concentration needed to halve the response being measured. The low end stands for higher potency, the high end for lower potency.

The target in the test is T1, Neprilysin (Rattus norvegicus, UniProt P07861).
T1 sequence (P07861 whole entry): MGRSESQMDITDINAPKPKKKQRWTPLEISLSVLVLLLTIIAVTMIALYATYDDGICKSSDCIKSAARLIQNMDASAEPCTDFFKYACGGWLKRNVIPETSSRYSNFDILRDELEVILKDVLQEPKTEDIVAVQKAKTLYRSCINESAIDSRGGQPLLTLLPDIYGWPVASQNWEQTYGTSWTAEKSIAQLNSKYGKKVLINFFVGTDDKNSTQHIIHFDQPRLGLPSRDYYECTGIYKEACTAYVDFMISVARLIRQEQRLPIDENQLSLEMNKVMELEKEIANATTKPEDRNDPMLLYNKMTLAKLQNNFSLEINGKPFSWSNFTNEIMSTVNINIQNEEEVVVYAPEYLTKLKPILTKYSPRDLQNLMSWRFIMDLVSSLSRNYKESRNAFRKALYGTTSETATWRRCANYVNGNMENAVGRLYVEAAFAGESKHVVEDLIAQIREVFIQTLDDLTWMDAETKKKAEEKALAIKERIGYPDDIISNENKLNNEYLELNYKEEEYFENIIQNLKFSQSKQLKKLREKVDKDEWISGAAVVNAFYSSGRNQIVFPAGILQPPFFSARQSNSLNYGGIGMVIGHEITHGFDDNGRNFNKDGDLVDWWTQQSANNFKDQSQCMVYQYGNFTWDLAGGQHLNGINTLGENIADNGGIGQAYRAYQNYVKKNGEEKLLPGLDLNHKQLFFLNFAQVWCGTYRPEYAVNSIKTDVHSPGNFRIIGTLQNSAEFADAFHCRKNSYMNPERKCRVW
The test can be described thus: In vitro inhibitory activity against neutral endopeptidase (NEP 24.11) from rat kidney cortex membranes.
`O=C(O)CCNC(=O)C(CCP(=O)(O)O)Cc1ccc(-c2ccccc2)cc1` (stereo not given) returned an IC50 of 1 µM.
In the case of `O=C(O)CCNC(=O)C(Cc1ccc(-c2ccccc2)cc1)SCP(=O)(O)O` (stereo not given), the IC50 was 0.797 µM.
`O=C(O)CCNC(=O)[C@H](Cc1ccc(-c2ccccc2)cc1)NCP(=O)(O)O`: the IC50 stood at 0.0016 µM. This IC50 is about 500-fold lower than that of the molecule before.
The figure for `O=C(O)CCNC(=O)C(Cc1ccc(-c2ccccc2)cc1)S(=O)(=O)CP(=O)(O)O` (stereo not given) is > 10 µM; for `O=C(O)CCNC(=O)C(Cc1ccc(-c2ccccc2)cc1)OCP(=O)(O)O` (stereo not given) it is 0.0095 µM.
